Literature values, collected in EP0280593B1, “Composition on the basis of an amino-acid and vitamins for use in cancer therapy” (Rougereau, André, priority 1987, dated 1988).

Legend:
[1] = system: rat; conditions: par voie orale chez le rat
[2] = system: souris; conditions: par voie orale chez la souris

NCCC(=O)O [β-alanine]
dose léthale DL₅₀ [1]: > 10000 mg/kg | dose léthale DL₅₀ [2]: > 10000 mg/kg
